Reference: ChEMBL document CHEMBL3526110, “Preclinical evaluation of the metabolism and disposition of RRx-001, a novel investigative anticancer agent” (Drug Metab Dispos, 2012)

Assays:
Blood [1] = assay: Drug metabolism in human whole blood treated with 20 uM RRx-001 assessed as compound formation by LC-MS/MS method; type: ADME, tissue-based
Blood [2] = assay: Drug metabolism in rat whole blood treated with 20 uM RRx-001 assessed as compound formation by LC-MS/MS method; type: ADME, tissue-based
Blood [3] = assay: Retention time in human whole blood in presence of 0.1% formic acid in water at 20 uM by LC-MS/MS method; type: ADME, tissue-based
Blood [4] = assay: Retention time in human whole blood in presence of 0.1% formic acid in acetonitrile at 20 uM by LC-MS/MS method; type: ADME, tissue-based
Blood [5] = assay: Retention time in rat whole blood in presence of 0.1% formic acid in acetonitrile at 20 uM by LC-MS/MS method; type: ADME, tissue-based
[6] = Drug level assessed as compound formation from RRx-001 after 1 hr in presence of reduced GSH at pH 7.8 by LC-MS/MS method; type: physicochemical; details: pH 7.8, 1 h
Blood [7] = assay: Retention time in rat whole blood in presence of 0.1% formic acid in water at 20 uM by LC-MS/MS method; type: ADME, tissue-based

Q: With `N[C@@H](CSCC(=O)N1CC([N+](=O)[O-])([N+](=O)[O-])C1)C(=O)O` as the molecule, how does the Drug metabolism (Blood [1]) read?
A: metabolite_detected

Q: What about the Drug metabolism (Blood [2]) of the same molecule?
A: metabolite_detected

Q: And the Retention_time (Blood [3])?
A: 7.8 min

Q: What about the Retention_time (Blood [4]) of the same molecule?
A: 7.6 min

Q: And the Retention_time (Blood [5])?
A: 7.6 min

Q: And the Drug metabolism [6]?
A: metabolite_detected

Q: What about the Retention_time (Blood [7]) of the same molecule?
A: 7.8 min
